Among the data in patent US10214512B2, “Factor XIA inhibitors” (MERCK SHARP & DOHME CORP., priority 2015, dated 2019) are Ki values, retold here.

Like-named read-outs stand apart in the source and are kept apart here.

Assay [1] has as its target purified human Factor XIa (Homo sapiens (Human), UniProt P03951). The assay is described as follows: Factor XIa Assay. The format is biochemical. Particulars: purified human Factor XIa 40 pM; substrate Z-Gly-Pro-Arg-AFC 100 μM; 50 mM HEPES pH 7.4; read-out: Human FXIa Ki. The procedure, abridged:
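Ki obtained from the dependence of uninhibited/inhibited initial-velocity ratio on inhibitor concentration, under a competitive-inhibition model. Reactions used 100 μM Z-Gly-Pro-Arg-AFC and 40 pM final human Factor XIa in pH 7.4 HEPES buffer with NaCl, CaCl2 and PEG 8000; run at rt or 37° C following pre-equilibration.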

Assay [2] deals with purified Human plasma Kallikrein (Homo sapiens (Human), UniProt P03952). The assay is described as follows: Kallikrein Assay. The format is biochemical. Summed up:
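Purified human plasma kallikrein (0.5 nM) with fluorogenic Ac-K-P-R-AFC ([…]) in 50 mM HEPES pH 7.4, 150 mM NaCl, 5 mM CaCl2, 0.1% PEG 8000, at rt or 37 °C. Substrate hydrolysis rate read with and without inhibitor; IC50 from four-parameter logistic fit, converted to Ki by Cheng–Prusoff.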

The mark [3] stands for this setting: purified Human plasma Kallikrein 0.5 nM, substrate Acetyl-K-P-R-AFC, 50 mM HEPES pH 7.4, Ki from IC50 by Cheng Prusoff.

purified Human plasma Kallikrein, sequence (P03952 391-638): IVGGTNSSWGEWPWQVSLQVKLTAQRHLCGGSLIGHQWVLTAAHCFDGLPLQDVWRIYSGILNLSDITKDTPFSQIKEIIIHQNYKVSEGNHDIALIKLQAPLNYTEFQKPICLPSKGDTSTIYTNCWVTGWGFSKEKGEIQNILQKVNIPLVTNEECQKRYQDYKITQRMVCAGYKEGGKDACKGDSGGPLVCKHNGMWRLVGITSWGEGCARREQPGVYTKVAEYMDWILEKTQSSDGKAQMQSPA
purified Human plasma Kallikrein, sequence (P03952 20-390 partner): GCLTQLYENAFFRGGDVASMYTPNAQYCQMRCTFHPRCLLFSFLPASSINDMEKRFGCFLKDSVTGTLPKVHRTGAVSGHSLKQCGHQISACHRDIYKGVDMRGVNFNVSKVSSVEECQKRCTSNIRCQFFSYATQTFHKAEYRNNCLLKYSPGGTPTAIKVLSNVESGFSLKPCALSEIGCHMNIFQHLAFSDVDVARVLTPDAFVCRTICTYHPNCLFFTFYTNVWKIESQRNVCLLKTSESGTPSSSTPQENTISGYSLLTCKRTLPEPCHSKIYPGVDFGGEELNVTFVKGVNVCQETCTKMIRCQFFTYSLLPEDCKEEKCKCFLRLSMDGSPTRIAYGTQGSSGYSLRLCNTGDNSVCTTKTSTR
purified human Factor XIa, sequence (P03951 388-625): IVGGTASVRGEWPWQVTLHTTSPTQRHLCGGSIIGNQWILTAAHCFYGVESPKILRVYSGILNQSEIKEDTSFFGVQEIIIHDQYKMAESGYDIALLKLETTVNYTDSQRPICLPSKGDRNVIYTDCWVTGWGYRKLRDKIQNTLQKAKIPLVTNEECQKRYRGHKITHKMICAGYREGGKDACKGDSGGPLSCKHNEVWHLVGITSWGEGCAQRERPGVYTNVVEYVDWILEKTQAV
purified human Factor XIa, sequence (P03951 19-387 partner): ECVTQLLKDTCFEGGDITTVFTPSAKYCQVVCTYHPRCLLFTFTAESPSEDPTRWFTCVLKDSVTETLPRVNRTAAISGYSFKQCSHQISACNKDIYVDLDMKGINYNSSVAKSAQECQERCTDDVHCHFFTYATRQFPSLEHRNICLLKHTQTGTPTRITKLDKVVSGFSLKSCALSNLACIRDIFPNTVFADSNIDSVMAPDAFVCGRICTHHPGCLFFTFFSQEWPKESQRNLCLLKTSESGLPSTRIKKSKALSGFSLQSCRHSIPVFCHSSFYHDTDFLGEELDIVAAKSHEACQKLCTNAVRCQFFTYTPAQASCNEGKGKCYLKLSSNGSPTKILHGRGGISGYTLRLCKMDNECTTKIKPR

Consider `O=C1CCCC[C@H](c2ccc(-c3cc(Cl)ccc3-n3cc(C(F)(F)F)cn3)c[n+]2[O-])c2cccc(c2)-c2c(cnn2C(F)F)N1` (single isomer, unassigned) [Example 167], for which the figures for the inhibitory constant (Ki) in assay [1] and in assay [2] (setting [3]) were 1.37 nM and 376 nM, respectively.
With `COC(=O)Nc1ccc2c(c1)NC(=O)CCCC[C@H](c1ccc(-c3c(F)ccc(Cl)c3F)c[n+]1[O-])c1cc-2ncn1` (single isomer, unassigned) [Example 75], the Ki in assay [1] amounted to 2.7 nM; in assay [2] (setting [3]), 8.42 nM.
For `O=C1CCCC[C@H](c2ccc(-c3cc(Cl)ccc3-n3cnnn3)c[n+]2[O-])c2cccc(c2)-c2cc(C(=O)O)ccc2N1` [Example 4-b, 2-(2^5-Carboxy-4-oxo-3-aza-1(1,3),2(1,2)-dibenzenacyclononaphane-9-yl)-5-(5-chloro-2-(1H-tetrazol-1-yl)phenyl)pyridine 1-oxide], the Ki in assay [1] amounted to 8.4 nM; in assay [2], 332 nM.
On to `C[C@@H]1CCC[C@H](c2ccc(-c3cc(Cl)ccc3-n3cnnn3)c[n+]2[O-])c2cccc(c2)-c2cc(F)ccc2NC1=O` [Example 3-d, 5-(5-Chloro-2-(1H-tetrazol-1-yl)phenyl)-2-((5R,9S)-2^5-fluoro-5-methyl-4-oxo-3-aza-1(1,3),2(1,2)-dibenzenacyclononaphane-9-yl)pyridine 1-oxide], for which the Ki in assay [1] amounted to 0.18 nM; in assay [2] (setting [3]) it was 0.59 nM.
As for `O=C(C1CCCCC(c2ccc(-c3cc(Cl)ccc3-n3cnnn3)c[n+]2[O-])c2cccc(c2)-c2cc(F)ccc2N1)N1CCCC1` (single isomer, unassigned) [Example 79-b, 5-(5-Chloro-2-(1H-tetrazol-1-yl)phenyl)-2-(2^5-fluoro-4-(pyrrolidine-1-carbonyl)-3-aza-1(1,3),2(1,2)-dibenzenacyclononaphane-9-yl)pyridine 1-oxide], the figures for the Ki in assay [1] and in assay [2] (setting [3]) were 0.24 nM and 119 nM, respectively.
Taken in the same sequence, the figures for `COC(=O)Nc1ccc2c(c1)NC(=O)CCCCC(c1cc(OC)c(-c3c(F)ccc(Cl)c3F)c[n+]1[O-])c1cccc-2c1` (single isomer, unassigned) [Example 87-a, 5-(3-Chloro-2,6-difluorophenyl)-4-methoxy-2-(2^4-((methoxycarbonyl)amino)-4-oxo-3-aza-1(1,3),2(1,2) -dibenzenacyclononaphane-9-yl)pyridine 1-oxide] were 4.1 nM and 12.7 nM.
As to `COC(=O)Nc1ccc2c(c1)NC(=O)C[C@H]1C[C@@H]1C[C@H](c1ccc(-c3c(F)ccc(Cl)c3F)c[n+]1[O-])c1cccc-2c1` (single isomer, unassigned) [Example 66], the values for the inhibition constant Ki in assay [1] and in assay [2] (setting [3]) were 2.1 nM and 10.2 nM, respectively.
In the case of `O=C1CCCCC(c2ccc(-c3cc(Cl)cc(F)c3-n3cnnn3)c[n+]2[O-])c2cccc(c2)-c2cc(F)ccc2N1` (single isomer, unassigned) [Example 7-a, 5-(5-chloro-3-fluoro-2-(1H-tetrazol-1-yl)phenyl)-2-(2^5-fluoro-4-oxo-3-aza-1(1,3),2(1,2)-dibenzenacyclononaphane-9-yl)pyridine 1-oxide], the Ki in assay [1] amounted to 2.4 nM; in assay [2] (setting [3]), 238 nM.
In the case of `COC(=O)Nc1ccc2c(c1)NC(=O)CCCC[C@H](c1ccc(-c3cc(Cl)ccc3-c3cnn(C(F)F)c3)c[n+]1[O-])c1cccc-2c1` (single isomer, unassigned) [Example 42], the Ki in assay [1] was determined as 0.44 nM; in assay [2] (setting [3]), 3.1 nM.
With `COC(=O)Nc1ccc2c(c1)NC(=O)C(C)CCCC(c1ccc(-c3c(F)ccc(Cl)c3F)c[n+]1[O-])c1cccc-2c1` (single isomer, unassigned) [Example 50-a, 5-(3-chloro-2,6-difluorophenyl)-2-(2^4-((methoxycarbonyl)amino)-5-methyl-4-oxo-3-aza-1(1,3),2(1,2)-dinenzenacyclononaphane-9-yl)pyridine 1-oxide], the inhibition constant Ki in assay [1] worked out at 0.53 nM; in assay [2] (setting [3]), 1.89 nM.
As for `O=C1CCCCC(c2ccc(-c3cc(Cl)ccc3-n3cnnn3)c[n+]2[O-])c2cc[n+]([O-])c(c2)-c2cc(F)ccc2N1` (stereo not drawn) [Example 80, 9-(5-(5-chloro-2-(1h-tetrazol-1-yl)phenyl)-1-oxidopyridin-2-yl)-2^5-fluoro-4-oxo-3-aza-1(2,4)-pyridin-1-iuma-2(1,2)-benzenacyclononaphane 1^1-oxide], the inhibitory constant (Ki) amounted to 0.59 nM in assay [1] and 13.3 nM in assay [2] (setting [3]).
As for `COC(=O)Nc1ccc2c(c1)NC(=O)CCCC[C@H](c1ccc(-c3cc(F)ccc3OC(F)F)c[n+]1[O-])c1nc-2c(C)[nH]1` (single isomer, unassigned) [Example 129], the Ki in assay [1] was found to be 0.12 nM; in assay [2] (setting [3]), 1.72 nM.
As for `CCOC(=O)Nc1ccc2c(c1)NC(=O)CCCC[C@H](c1ccc(-c3c(F)ccc(Cl)c3F)c[n+]1[O-])c1cccc-2c1` [Example 44, (s)-5-(3-chloro-2,6-difluorophenyl)-2-(2^4-((ethoxycarbonyl)amino)-4-oxo-3-aza-1(1,3),2(1,2)-dinenzenacyclononaphane-9-yl)pyridine 1-oxide], the inhibition constant Ki was 1.23 nM in assay [1] and 2.7 nM in assay [2] (setting [3]).
Taken in the same sequence, the figures for `CCc1[nH]c2nc1-c1ccc(NC(=O)OC)cc1NC(=O)CCCCC2c1ccc(-c2c(F)ccc(Cl)c2F)c[n+]1[O-]` (single isomer, unassigned) [Example 112-a, (Z)-5-(3-Chloro-2,6-difluorophenyl)-2-(1^5-ethyl-2^4-((Methoxycarbonyl)amino)-4-oxo-1^1H-3-AZA-1(4,2)-imidazola-2(1,2) -benzenacyclononaphane-9-yl)pyridine 1-oxide] were 0.13 nM and 0.26 nM.
`O=C1CCCCC(c2ccc(-c3cc(Cl)ccc3-n3cnnn3)c[n+]2[O-])c2ccnc(c2)-c2cc(F)ccc2N1` (stereo not drawn) [Example 70, 5-(5-chloro-2-(1H-tetrazol-1-yl)phenyl)-2-(2^5-fluoro-4-oxo-3-aza-1(2,4)-pyridina-2(1,2)-benzenacyclononaphane-9-yl)pyridine 1-oxide]: the Ki in assay [1] came to 0.37 nM; in assay [2] (setting [3]), 2.09 nM.
The like results for `COC(=O)Nc1ccc2c(c1)NC(=O)CCCC[C@H](c1ccc(-c3cc(F)ccc3OC(F)(F)F)c[n+]1[O-])c1nc-2c(C)[nH]1` (single isomer, unassigned) [Example 132] were, in that order, 0.22 nM and 5.94 nM.
Taken in the same sequence, the figures for `COC(=O)Nc1ccc2c(c1)NC(=O)CCCCC(c1ccc(-c3c(F)ccc(Cl)c3F)c[n+]1[O-])c1cc-2cc[n+]1[O-]` (stereo not drawn) [Example 83, 9-(5-(3-chloro-2,6-difluorophenyl)-1-oxidopyridin-2-yl)-2^4-((methoxycarbonyl)amino)-4-oxo-3-aza-1(4,2)-pyridin-1-iuma-2(1,2)-benzenacyclononaphane 1^1-oxide] were 2.2 nM and 5.47 nM.
As for `N#Cc1cnn(-c2ccc(Cl)cc2-c2ccc([C@H]3CCCCC(=O)Nc4cnn(C(F)F)c4-c4cccc3c4)[n+]([O-])c2)c1` (single isomer, unassigned) [Example 169], the Ki came out at 3.8 nM in assay [1] and 94.2 nM in assay [2] (setting [3]).
In the case of `O=C(C1CCCCC(c2ccc(-c3cc(Cl)ccc3-n3cnnn3)c[n+]2[O-])c2cccc(c2)-c2cc(F)ccc2N1)N1CCCC1` (single isomer, unassigned) [Example 79-d, 5-(5-Chloro-2-(1H-tetrazol-1-yl)phenyl)-2-(2^5-fluoro-4-(pyrrolidine-1-carbonyl)-3-aza-1(1,3),2(1,2)-dibenzenacyclononaphane-9-yl)pyridine 1-oxide], the Ki in assay [1] was 30.3 nM; in assay [2] (setting [3]), 2170 nM.
Taken in the same sequence, the figures for `COC(=O)Nc1ccc2c(c1)NC(=O)CCCCC(c1ccc(-c3cc(Cl)ccc3-n3cc(C(F)F)nn3)c[n+]1[O-])c1cccc-2c1` (single isomer, unassigned) [Example 36-a, 5-(5-chloro-2-(4-(difluoromethyl)-1H-1,2,3-triazol-1-yl)phenyl)-2-(2^4-((methoxycarbonyl)amino)-4-oxo-3-aza-1(1,3),2(1,2)-dibenzenacyclononaphane-9-yl)pyridine 1-oxide] were 0.26 nM and 0.81 nM.
For `COC(=O)Nc1ccc2c(c1)NC(=O)CCCC[C@H](c1ccc(-c3c(F)ccc(Cl)c3F)c[n+]1[O-])c1cc-2ccn1` (single isomer, unassigned) [Example 73], the Ki came to 0.34 nM in assay [1] and 1.08 nM in assay [2] (setting [3]).
Regarding `COC(=O)Nc1ccc2c(c1)NC(=O)CCCCC(c1ccc(-c3cc(Cl)ccc3OC(F)(F)F)c[n+]1[O-])c1nc-2c[nH]1` (single isomer, unassigned) [Example 99-a, (Z)-5-(5-chloro-2-(trifluoromethoxy)phenyl)-2-(2^4-((methoxycarbonyl)amino)-4-oxo-1^1H-3-aza-1(4,2)-imidazola-2(1,2) -benzenacyclononaphane-9-yl)pyridine 1-oxide], the values for the inhibitory constant (Ki) in assay [1] and in assay [2] (setting [3]) were 0.17 nM and 1.21 nM, respectively.
Consider `COC(=O)Nc1ccc2c(c1)NC(=O)[C@H](C)CCC[C@H](c1ccc(-c3c(F)cccc3F)c[n+]1[O-])c1nc-2c(C)[nH]1` (single isomer, unassigned) [Example 143-b], for which the Ki in assay [1] worked out at 0.1 nM; in assay [2] (setting [3]), 0.4 nM.
The like results for `COC(=O)Nc1ccc2c(c1)NC(=O)CCCCC(c1ccc(-c3cc(Cl)ccc3OC(F)F)c[n+]1[O-])c1nc-2c[nH]1` (single isomer, unassigned) [Example 102-a, (Z)-5-(5-Chloro-2-(difluoromethoxy)phenyl)-2-(2^4-((methoxycarbonyl)amino)-4-oxo-1^1H-3-aza-1(4,2)-imidazola-2(1,2) -benzenacyclononaphane-9-yl)pyridine 1-oxide] were, in that order, 0.14 nM and 0.43 nM.
